The record followed here is article PMC6540907, “The nuclear export inhibitor aminoratjadone is a potent effector in extracellular-targeted drug conjugates” (Chemical Science, 2019).

Common to all, as to assay type: cell-based, human
Experiment [1] concerns A-549. The experiment can be described thus: cells. Here is the method:
(§1) Biological evaluation of the compounds […]
(§2) serial dilutions of the test compound were given to 120 µL of suspended cells (50.000/mL) in wells of 96-well plates. After 5 days of incubation growth inhibition (IC50) was determined using an MTT assay.9
(§3) Table S1:Medium conditions for different cell types.
(§4) Cell type Medium Additives
(§5) L-929 (DSMZ ACC 2) DME medium (high glucose) (Gibco) 10% fetal calf serum (Gibco) SKOV-3 DSMZ ATCC HTB Mc Coys-Medium (Gibco) 10% fetal calf serum (Gibco) […]
(§6) A549 (DSMZ ACC 107) DME medium (high glucose) (Gibco) 10% fetal calf serum (Gibco)

Experiment [2] has as its system KB-3.1. The experiment can be described thus: cells. Here is the method: as §1, §2, §3, §4, §5, §6
Experiment [3] has as its system MCF-7. The experiment can be described thus: cells. Here is the method:
as §1, §2, §3, §4, §5, §6

Experiment [4] deals with SK-OV-3. The experiment in a line: cells. As to the method: as §1, §2, §3, §4, §5, §6
The test system of experiment [5] is KB-3.1 cancer cells. The experiment can be described thus: Cell proliferation assay under folate free conditions (MTT). To be noted: KB-3.1, folate receptor-positive, read-out: Antiproliferative activity IC50 of folate-ratjadone conjugates. As to the method: Cell proliferation assay under folate free conditions
KB 3.1 (DSMZ ACC 158) cells were cultivated at 37 °C and 10 % CO2 in RMPI-medium without folic acid (Gibco) with 10% fetal calf serum (Gibco). 120 µL of suspended cells (100.000/mL) were seeded in wells of 96-well plates and after 24 h at 37 °C and 10 % CO2 the medium was removed, the cells were washed with PBS and RPMI-medium without folic acid (Gibco) + 10% dialyzed fetal calf serum (Sigma) were added to the cells, before after additional 24 h at 37°C and 10 % CO2 60 µL of serial dilutions of the test compound were given to cells. After 1, 2 and 5 days of incubation growth inhibition (IC50) was determined using an […]

[6] abbreviates: A-549 human lung carcinoma, read-out: Antiproliferative activity IC50.
The mark [7] stands for this setting: Homo sapiens, A549, read-out: Antiproliferative activity IC50, A-549 human lung carcinoma.
The mark [8] stands for this setting: Homo sapiens, KB 3-1, read-out: Antiproliferative activity IC50, KB-3.1 human cervix carcinoma.
Setting [9] is: Homo sapiens, MCF7, read-out: Antiproliferative activity IC50, MCF-7 human breast carcinoma.
Setting [10] is: Homo sapiens, SK-OV-3, read-out: Antiproliferative activity IC50.

Molecules are shown by their SMILES. pIC50: −log10 of the molar value. Read-outs that look alike come from different tables or passages of the source. Starred links: 1 amine or outer side, 2 acyl side, 3 side chain; linkers in the order of their positions; H or OH if unused. Non-standard residues stand in square brackets, D forms with d. Residues, ends and D or L forms follow the SMILES beside them. Groups on a side chain read outwards from the residue. *: point of attachment. X2 = C/C=C/[C@@H]1O[C@H]([C@@H](/C=C/C=C(\C)C[C@@H](C)/C=C(C)\C=C\[C@H]2CC=CC(=O)O2)N*)C[C@@H](O)[C@@H]1C; X1 = O=C([C@@H](CCCn1nnc2c1CCC1C(CC2)C1COC(=O)[*:3])N[*:1])[*:2]; PABC = O=C(OCc1ccc(N[*:1])cc1)[*:2]; Cit = NC(=O)NCCC[C@H](N)C(=O)O; pGlu = O=C1CC[C@@H](C(=O)O)N1; azaGly = NNC(=O)O

As a reminder, the pIC50 is the negative decadic logarithm of the IC50, by convention in mol/L. Consider `C/C=C/[C@@H]1O[C@H]([C@@H](/C=C/C=C(\C)C[C@@H](C)/C=C(C)\C=C\[C@H]2CC=CC(=O)O2)NC(=O)OCc2ccc(NC(=O)[C@H](CCCNC(N)=O)NC(=O)[C@@H](NC(=O)OCC3C4CCc5nnn(CCC[C@@H](NC(=O)[C@H](Cc6ccc(O)cc6)NC(=O)[C@H](CO)NC(=O)[C@H](Cc6c[nH]c7ccccc67)NC(=O)[C@H](Cc6c[nH]cn6)NC(=O)[C@@H]6CCC(=O)N6)C(=O)N[C@@H](CC(C)C)C(=O)N[C@@H](CCCNC(=N)N)C(=O)N6CCC[C@H]6C(=O)NCC(N)=O)c5CCC43)C(C)C)cc2)C[C@@H](O)[C@@H]1C` (some centres unmarked), for which the pIC50 in experiment [1] (setting [6]) is 7.64.

For the compound `C/C=C/[C@@H]1O[C@H]([C@@H](/C=C/C=C(\C)C[C@@H](C)/C=C(C)\C=C\[C@H]2CC=CC(=O)O2)NC(=O)OCc2ccc(NC(=O)[C@H](CCCNC(N)=O)NC(=O)[C@@H](NC(=O)OCCc3cn(CCC[C@H](NC(=O)[C@H](Cc4ccc(O)cc4)NC(=O)[C@H](CO)NC(=O)[C@H](Cc4c[nH]c5ccccc45)NC(=O)[C@H](Cc4c[nH]cn4)NC(=O)[C@@H]4CCC(=O)N4)C(=O)N[C@@H](CC(C)C)C(=O)N[C@@H](CCCNC(=N)N)C(=O)N4CCC[C@H]4C(=O)NCC(N)=O)nn3)C(C)C)cc2)C[C@@H](O)[C@@H]1C`, the pIC50 in experiment [1] (setting [6]) was 5.92.

Regarding `C/C=C/[C@@H]1O[C@H]([C@@H](/C=C/C=C(\C)C[C@@H](C)/C=C(C)\C=C\[C@H]2CC=CC(=O)O2)NC(=O)OCc2ccc(NC(=O)[C@H](CCCNC(N)=O)NC(=O)[C@@H](NC(=O)OCC3C4CCc5nnn(CCC[C@@H](NC(=O)[C@H](Cc6ccc(O)cc6)NC(=O)[C@H](CO)NC(=O)[C@H](Cc6c[nH]c7ccccc67)NC(=O)[C@H](Cc6c[nH]cn6)NC(=O)[C@@H]6CCC(=O)N6)C(=O)N[C@@H](CC(C)C)C(=O)N[C@@H](CCCNC(=N)N)C(=O)N6CCC[C@H]6C(=O)NNC(N)=O)c5CCC43)C(C)C)cc2)C[C@@H](O)[C@@H]1C` (stereo partly drawn) ([pGlu]HWSY[X1]([Val-Cit-PABC-X2])LRP[azaGly]-NH2), the pIC50 in experiment [1] (setting [6]) was 7.89.

Take `C#CCCOC(=O)N[C@@H](C(=O)NC(CCCNC(N)=O)C(=O)Nc1ccc(COC(=O)N[C@H](/C=C/C=C(\C)C[C@@H](C)/C=C(C)\C=C\[C@H]2CC=CC(=O)O2)[C@@H]2C[C@@H](O)[C@H](C)[C@H](/C=C/C)O2)cc1)C(C)C` (some centres unmarked) [Compound 26]: the pIC50 in experiment [1] (setting [6]) is 7.60; in experiment [1] (Homo sapiens, A549, A-549 human lung carcinoma, read-out: Antiproliferative activity IC50) it was 7.60; in experiment [2] (KB 3-1, KB-3.1 human cervix carcinoma, read-out: Antiproliferative activity IC50), 8.04; in experiment [3] (Homo sapiens, MCF7, MCF-7 human breast carcinoma, read-out: Antiproliferative activity IC50), 7.90; in experiment [3] (MCF-7 human breast carcinoma, read-out: Antiproliferative activity IC50), 7.90; in experiment [4] (Homo sapiens, SK-OV-3, SK-OV-3 human ovarian carcinoma, read-out: Antiproliferative activity IC50), 7.87. Also, in experiment [4] (SK-OV-3 human ovarian carcinoma, read-out: Antiproliferative activity IC50), the pIC50 is 7.87.

Regarding `C#CCCC(=O)NCCSSCCC(=O)N[C@H](/C=C/C=C(\C)C[C@@H](C)/C=C(C)\C=C\[C@H]1CC=CC(=O)O1)[C@@H]1C[C@@H](O)[C@H](C)[C@H](/C=C/C)O1` [Compound 29, HCC(CH2)2(CO)-NH-(CH2)2SS(CH2)2(CO)-16R-Aminoratjadone], the pIC50 in experiment [1] (setting [7]) is 9.07; in experiment [2] (setting [8]), 8.73; in experiment [3] (setting [9]), 9.77; in experiment [4] (setting [10]) it was 8.96.

Regarding `C#CCCOC(=O)NC1C[C@@H]([C@H](O)/C=C/C=C(\C)C[C@@H](C)/C=C(C)\C=C\[C@H]2CC=CC(=O)O2)O[C@@H](/C=C/C)[C@H]1C` (some centres unmarked) [Compound 34], the pIC50 is 8.28 in experiment [1] (setting [7]), 8.14 in experiment [2] (setting [8]), 8.51 in experiment [3] (setting [9]) and 8.37 in experiment [4] (setting [10]).

Take `CC(C)C[C@H](NC(=O)[C@@H](CCCN=[N+]=[N-])NC(=O)[C@H](Cc1ccc(O)cc1)NC(=O)[C@H](CO)NC(=O)[C@H](Cc1c[nH]c2ccccc12)NC(=O)[C@H](Cc1c[nH]cn1)NC(=O)[C@@H]1CCC(=O)N1)C(=O)N[C@@H](CCCNC(=N)N)C(=O)N1CCC[C@H]1C(=O)NCC(N)=O` [D-Orn-N3-LHRH]: the pIC50 in experiment [1] was 6.50; in experiment [2], 5.96; in experiment [3] it was 7.32; in experiment [4] it was 6.72.

For `C/C=C/[C@@H]1O[C@H]([C@@H](/C=C/C=C(\C)C[C@@H](C)/C=C(C)\C=C\[C@H]2CC=CC(=O)O2)NC(=O)OCc2ccc(NC(=O)[C@H](CCCNC(N)=O)NC(=O)[C@@H](NC(=O)OCC3C4CCc5nnn(-c6ccc(C(=O)NCCCC[C@H](NC(=O)CC[C@H](NC(=O)CC[C@H](NC(=O)c7ccc(NCc8cnc9nc(N)[nH]c(=O)c9n8)cc7)C(=O)O)C(=O)O)C(=O)OC)cc6)c5CCC43)C(C)C)cc2)C[C@@H](O)[C@@H]1C` (stereo partly drawn) [FA-1-Val-Cit-pABA-16R-aminoratjadone], the pIC50 in experiment [5] (listed as FA-1-Val-Cit-pABA-16R-Aminoratjadone) and in experiment [5] was 6.77 in each case.

Turning to `C/C=C/[C@@H]1O[C@H]([C@@H](/C=C/C=C(\C)C[C@@H](C)/C=C(C)\C=C\[C@H]2CC=CC(=O)O2)NC(=O)OCCc2cn(-c3ccc(C(=O)NCCCC[C@H](NC(=O)CC[C@H](NC(=O)CC[C@H](NC(=O)c4ccc(NCc5cnc6nc(N)nc(O)c6n5)cc4)C(=O)O)C(=O)O)C(=O)O)cc3)nn2)C[C@@H](O)[C@@H]1C` [FA-6-L-16R-aminoratjadone], the pIC50 in experiment [5] (listed as FA-6-L-16R-Aminoratjadone) and in experiment [5] was 6.82 each time.

On to `C/C=C/[C@@H]1O[C@H]([C@@H](/C=C/C=C(\C)C[C@@H](C)/C=C(C)\C=C\[C@H]2CC=CC(=O)O2)NC(=O)OCc2ccc(NC(=O)[C@H](CCCNC(N)=O)NC(=O)[C@@H](NC(=O)OC[C@@H]3[C@@H]4CCc5nnn(-c6ccc(C(=O)NCCCC[C@H](NC(=O)CC[C@H](NC(=O)CC[C@H](NC(=O)c7ccc(NCc8cnc9nc(N)nc(O)c9n8)cc7)C(=O)O)C(=O)O)C(=O)O)cc6)c5CC[C@@H]43)C(C)C)cc2)C[C@@H](O)[C@@H]1C` [FA-6-Val-Cit-pABA-16R-aminoratjadone], for which the pIC50 in experiment [5] (listed as FA-6-Val-Cit-pABA-16R-Aminoratjadone) and in experiment [5] was 6.65 in each case.

Consider `C/C=C/[C@@H]1O[C@H]([C@@H](/C=C/C=C(\C)C[C@@H](C)/C=C(C)\C=C\[C@H]2CC=CC(=O)O2)NC(=O)OCCc2cn(CCC[C@H](NC(=O)CC[C@H](NC(=O)CC[C@H](NC(=O)c3ccc(NCc4cnc5nc(N)[nH]c(=O)c5n4)cc3)C(=O)O)C(=O)O)C(=O)O)nn2)C[C@@H](O)[C@@H]1C` [FA-7-L-16R-aminoratjadone], for which the pIC50 in experiment [5] (listed as FA-7-L-16R-Aminoratjadone) and in experiment [5] was 6.72 each time.

`C/C=C/[C@@H]1O[C@H]([C@@H](/C=C/C=C(\C)C[C@@H](C)/C=C(C)\C=C\[C@H]2CC=CC(=O)O2)NC(=O)OCc2ccc(NC(=O)[C@H](CCCNC(N)=O)NC(=O)[C@@H](NC(=O)OC[C@@H]3[C@@H]4CCc5nnn(CCC[C@H](NC(=O)CC[C@H](NC(=O)CC[C@H](NC(=O)c6ccc(NCc7cnc8nc(N)nc(O)c8n7)cc6)C(=O)O)C(=O)O)C(=O)O)c5CC[C@@H]43)C(C)C)cc2)C[C@@H](O)[C@@H]1C` [FA-7-Val-Cit-pABA-16R-aminoratjadone]: in experiment [5], the pIC50 was 7.46.

Take `C/C=C/[C@@H]1O[C@H]([C@@H](/C=C/C=C(\C)C[C@@H](C)/C=C(C)\C=C\[C@H]2CC=CC(=O)O2)NC(=O)OCCc2cn(-c3ccc(C(=O)NCCCC[C@H](NC(=O)CC[C@H](NC(=O)c4ccc(NCc5cnc6nc(N)[nH]c(=O)c6n5)cc4)C(=O)O)C(=O)N[C@@H](CCCCN)C(=O)O)cc3)nn2)C[C@@H](O)[C@@H]1C` [FA-8-L-16R-aminoratjadone]: the pIC50 in experiment [5] (listed as FA-8-L-16R-Aminoratjadone) and in experiment [5] was 6.89 in each case.

For the compound `C/C=C/[C@@H]1O[C@H]([C@@H](/C=C/C=C(\C)C[C@@H](C)/C=C(C)\C=C\[C@H]2CC=CC(=O)O2)NC(=O)OCc2ccc(NC(=O)[C@H](CCCNC(N)=O)NC(=O)[C@@H](NC(=O)OC[C@@H]3[C@@H]4CCc5nnn(-c6ccc(C(=O)NCCCC[C@H](NC(=O)CC[C@H](NC(=O)c7ccc(NCc8cnc9nc(N)nc(O)c9n8)cc7)C(=O)O)C(=O)N[C@H](CCCCN)C(=O)O)cc6)c5CC[C@@H]43)C(C)C)cc2)C[C@@H](O)[C@@H]1C` [FA-8-Val-Cit-pABA-16R-aminoratjadone], in experiment [5], the pIC50 was 7.40.

Turning to `C/C=C/[C@@H]1O[C@H]([C@@H](/C=C/C=C(\C)C[C@@H](C)/C=C(C)\C=C\[C@H]2CC=CC(=O)O2)NC(=O)OCCc2cn(CCC[C@H](NC(=O)[C@H](Cc3ccc(O)cc3)NC(=O)[C@H](CO)NC(=O)[C@H](Cc3c[nH]c4ccccc34)NC(=O)[C@H](Cc3c[nH]cn3)NC(=O)[C@@H]3CCC(=O)N3)C(=O)N[C@@H](CC(C)C)C(=O)N[C@@H](CCCNC(=N)N)C(=O)N3CCC[C@H]3C(=O)NCC(N)=O)nn2)C[C@@H](O)[C@@H]1C` [L-Orn-LHRH-16R-aminoratjadone], the pIC50 in experiment [1] (setting [6]) is 5.80.
